Reference: patent US20100203507A1 (PROMETHEUS LABORATORIES, INC, priority 2005, published 2010)
Values joined by “and” are separate entries in the source; they are usually repeats but may differ in a detail not shown here. Equal entries are not always repeated.

Tests used:
[1] = tested on: patients with rheumatoid arthritis; assay: Cross-sectional study: clinical efficacy by disease activity score DAS28 (Example 1); format: in vivo, human
Experimental: (§1) Study design: The study was cross-sectional at two investigational California sites (Cedars Sinai, Department of Rheumatology; and UCLA, Department of Rheumatology). […] Concomitant disease-modifying arthritis agents (e.g., sulphasalazine, hydroxychloroquine, leflunomide), low-dose corticosteroids (<10 mg day), and folic acid supplementation were allowed. […] Patient demographics were collected at the time of enrollment in the study. At a single study visit, EDTA blood was drawn and shipped overnight to Prometheus Laboratories in San Diego, Calif.
(§2) Clinical status assessment: Patient clinical and demographic characteristics were collected at the single study visit. Clinical efficacy was assessed using the disease activity score (DAS28), which includes the number of tender and swollen joint counts (n=28), the erythrocyte sedimentation rate, and the patient's global assessment of disease activity.

[2] = tested on: adult rheumatoid arthritis patients naive to MTX; assay: Prospective longitudinal MTX dose escalation study: response (DAS28, EULAR criteria, physician's assessment VAS) (Example 2)
[3] = tested on: RBC folate polyglutamates; assay: RBC folate polyglutamate levels by radio-assay (Example 2); format: in vivo, human; settings: for RBC folate PG decrease versus baseline / RBC folate PG levels: fourth visit
Experimental: Laboratory measurements: Red blood cell (RBC) long-chain MTXPG concentrations (MTXPG3; nmol/L RBC) were measured using a post-column photo-oxidation HPLC-fluorometry technique as described in, e.g., Dervieux et al., Clin. Chem., 49:1632-1641 (2003). RBC folate polyglutamates (Folate PGs; expressed as nmol/L RBCs) were measured using a radio-assay (Biorad; Hercules, Calif.). The MTHFR C677T polymorphism can be measured with a real-time TaqMan allelic discrimination assay as described above. The MS A2756G polymorphism, which results in an aspartic acid to glycine substitution at codon 919 of MS, can be measured with a real-time TaqMan allelic discrimination assay using the following primers and fluorogenic 3′-minor groove binding probes: forward primer: 5′-GAATACTTTGAGGAAATCATGGAAGA-3′ (SEQ ID NO:17); reverse primer: 5′-TCTGTTTCTACCACTTACCTTGAGAGACT-3′ (SEQ ID NO:18); wild-type fluorescent probe: 5′-FAM-AGA CAG GAC CAT TAT G-MGB-3′ (SEQ ID NO:19); and mutant fluorescent probe: 5′-VIC-ACA GGG CCA TTA TG-MGB-3′ (SEQ ID NO:20).

[4] = tested on: adult rheumatoid arthritis patients naive to MTX; assay: Prospective longitudinal MTX dose escalation study: occurrence of side-effects (Example 2)
Experimental: The clinical assessment at each study visit consisted of a tender and swollen joint count, a patient's assessment of disease activity (10 cm-VAS), a physician's assessment of disease activity (10 cm-VAS), and a C-Reactive protein (CRP) determination.
The occurrence of side-effects was recorded at the time of each study visit. […] Leukocyte count, hemoglobin, and liver AST were measured on the day of the study visit using standard laboratory methods. […] All data were captured on Case Report Forms using a standardized questionnaire. This consisted of the presence of nausea, dyspepsia, diarrhea, headache, lethargy, stomatitis, alopecia, and pulmonary toxicity (e.g., cough, dyspnea, pulmonary infiltrates). Patients were evaluated by the same physician at the time of each study visit. Toxicities were graded as “mild,” “moderate,” and “severe.” EDTA whole blood was drawn from each patient and shipped overnight from Albany, N.Y. to Prometheus Laboratories in San Diego, Calif.
Toxicities were analyzed using the percentage of 4-6 week periods with side-effects per patient. […] Statistical analyses were performed using the software package SAS (Release 8.2; SAS Institute Inc.; Cary, N.C.).

[5] = tested on: patients with rheumatoid arthritis; assay: Cross-sectional study: occurrence of side-effects under low dose MTX therapy (Example 1); format: in vivo, human
Experimental: as §1, §2
Statistical analysis: The analysis consisted of multivariate logistic regression with the occurrence of side-effects as the dependent variable.

[6] = visit 4, generalized linear model
[7] = visit 6, generalized linear model
[8] = MS 2756A/A vs. MS2756 A/G or G/G
[9] = MTHFR 1298A/C or C/C vs. MTHFR 1298A/A
[10] = MTRR 66G/G vs. MTRR 66A/A or A/G
[11] = 97 patients, single study visit

SMILES: CN(Cc1cnc2nc(N)nc(N)c2n1)c1ccc(C(=O)N[C@@H](CCC(=O)O)C(=O)O)cc1 [MTX, methotrexate]
- Patients presenting with a high disease activity ([1]; 97 patients on MTX): 47%
- Disease activity score (DAS28), median ([1]; 97 patients, median 30 months under methotrexate): 5.04
- Estimate, lower decrease in physician's assessment in disease activity ([2]; MTHFR 677T/T genotype): 0.367
- OR, lower likelihood of response to therapy ([2]; MTHFR 677T/T genotype, visit 4): 9.9
- OR, therapeutic response at about 6 months when MTXPG3 greater than about 20 nmol/L RBCs at about 3 months ([2]; RBC MTXPG3): 8.0
- Estimate, lower decrease in physician's assessment in disease activity ([2]; TS *2/*2 genotype): 0.360
- OR, lower likelihood of response to therapy ([2]; TS *2/*2 genotype, visit 4): 3.9
- Decrease in physician's assessment of disease activity compared to baseline ([2]; dose escalation 7.5 to 15 mg/week with MTXPG increase of 40 nmol/L RBCs at visit 4, from model equation): 19.8%
- Patients responding to therapy ([2]; visit 4): 77%
- Patients responding to therapy, number ([2]; visit 4): 36
- Patients with good response, number ([2]; visit 4): 15
- Patients with moderate response, number ([2]; visit 4): 11
- Patients with poor response (EULAR) ([2]; visit 4): 23%
- DAS28, median ([2]; visit 4 (baseline 5.1)): 3.5
- Physician's assessment of disease activity 10 cm VAS, median ([2]; visit 4 (baseline 5.6)): 2.6
- Estimate, RBC MTXPG level vs percentage change from baseline in physician's assessment VAS [2, 6]: −0.013±0.004
- Estimate, weekly MTX dose vs percentage change from baseline in physician's assessment VAS [2, 6]: 0.043±0.017
- Estimate, RBC MTXPG formation in responders vs non-responders ([2]; visit 4, generalized linear model, FIG. 3A): 0.034±0.020
- Patients with poor response (EULAR), number ([2]; visit 4, median dose 15 mg/week): 11
- Median decrease (from baseline) in DAS28 ([2]; visit 4, n=47): 36%
- Median decrease (from baseline) in physician's assessment of disease activity VAS ([2]; visit 4, n=48): 47%
- Estimate, MTX dose vs percentage change from baseline in DAS28 ([2]; visit 6): 0.011±0.051
- Estimate, formation of RBC MTXPGs vs percentage change from baseline in DAS28 ([2]; visit 6): −0.003±0.001
- Non-responders ([2]; visit 6): 9%
- Responders with moderate response, number ([2]; visit 6): 10
- Responders, number of patients ([2]; visit 6): 31
- DAS28, median ([2]; visit 6 (baseline 5.1)): 3.1
- Physician's assessment of disease activity 10 cm VAS, median ([2]; visit 6 (baseline 5.6)): 2.1
- Estimate, RBC MTXPG levels vs percentage change from baseline in physician's assessment of disease activity [2, 7]: −0.0077±0.025
- Estimate, weekly MTX dose vs percentage change from baseline in physician's assessment of disease activity [2, 7]: 0.029±0.012
- Non-responders, number of patients ([2]; visit 6, median dose 17.5 mg weekly): three
- Median decrease (from baseline) in DAS28 ([2]; visit 6, n=34): 41%
- Median decrease (from baseline) in physician's assessment of disease activity VAS ([2]; visit 6, n=35): 52%
- Responders with moderate response ([2]; visit 6, of the responders): 32%
- Estimate, percentage change in DAS28 vs percentage change in folate PG levels ([3]; baseline to visit 4): 0.32±0.10
- Estimate, percentage change in physician's assessment VAS vs percentage change in folate PG levels ([3]; baseline to visit 4): 0.71±0.22
- Estimate, MTX dose vs decrease in RBC folate PGs ([3]; baseline to visit 6): 0.0324±0.014
- Estimate, MTXPG levels vs decrease in RBC folate PGs ([3]; baseline to visit 6): −0.009±0.003
- Decrease in folate levels ([3]; dose 7.5 to 15 mg/week with MTXPG increase of 40 nmol/L RBCs at visit 6, from model equation): 11.7%
- Median RBC folate PG levels ([3]; fourth study visit, n=43 (initial 1222)): 1065 nmol/L RBCs
- RBC folate PG decrease versus baseline ([3]; efficacy index above 1): 14%
- RBC folate PG levels ([3]; efficacy index above 1): 1257 ± 70 nmol/L
- RBC folate PG decrease versus baseline ([3]; efficacy index of 0): 36%
- RBC folate PG levels ([3]; efficacy index of 0): 886 ± 59 nmol/L
- RBC folate PG decrease versus baseline ([3]; efficacy index of 1): 42%
- RBC folate PG levels ([3]; efficacy index of 1): 1168 ± 70 nmol/L
- Median RBC folate PG levels ([3]; sixth visit): 994 nmol/L RBCs
- Likelihood of response to MTX, decrease in RBC folate PGs vs no change or increase ([3]; visit 4): 8 fold and 7.7 fold
- Patients who experienced a severe side-effect in one of the study visits, number ([4]; 2 severe lethargy, 2 severe dyspepsia): 4
- Signs of hematological toxicity ([4]; 48 patients): None of the patients
- AST >40 U/L: median of percentage of study visits with side-effect per patient ([4]; 48 patients, 4 to 6 visits): 0%
- All side-effects: median of percentage of study visits with side-effect per patient ([4]; 48 patients, 4 to 6 visits): 50%
- Alopecia: median of percentage of study visits with side-effect per patient ([4]; 48 patients, 4 to 6 visits): 0%
- Alopecia: number of patients (% total) with at least one study visit with side-effect ([4]; 48 patients, 4 to 6 visits): 4 (8%)
- Central nervous system: median of percentage of study visits with side-effect per patient ([4]; 48 patients, 4 to 6 visits): 25%
- Central nervous system: number of patients (% total) with at least one study visit with side-effect ([4]; 48 patients, 4 to 6 visits): 30 (63%)
- Cough: median of percentage of study visits with side-effect per patient ([4]; 48 patients, 4 to 6 visits): 0%
- Cough: number of patients (% total) with at least one study visit with side-effect ([4]; 48 patients, 4 to 6 visits): 12 (25%)
- Dyspnea: median of percentage of study visits with side-effect per patient ([4]; 48 patients, 4 to 6 visits): 0%
- Dyspnea: number of patients (% total) with at least one study visit with side-effect ([4]; 48 patients, 4 to 6 visits): 1 (2.1%)
- Gastrointestinal tract: median of percentage of study visits with side-effect per patient ([4]; 48 patients, 4 to 6 visits): 25%
- Gastrointestinal tract: number of patients (% total) with at least one study visit with side-effect ([4]; 48 patients, 4 to 6 visits): 33 (69%)
- Headache: median of percentage of study visits with side-effect per patient ([4]; 48 patients, 4 to 6 visits): 0%
- Headache: number of patients (% total) with at least one study visit with side-effect ([4]; 48 patients, 4 to 6 visits): 14 (29%)
- Lethargy: median of percentage of study visits with side-effect per patient ([4]; 48 patients, 4 to 6 visits): 17%
- Lethargy: number of patients (% total) with at least one study visit with side-effect ([4]; 48 patients, 4 to 6 visits): 27 (56%)
- diarrhea: median of percentage of study visits with side-effect per patient ([4]; 48 patients, 4 to 6 visits): 0%
- diarrhea: number of patients (% total) with at least one study visit with side-effect ([4]; 48 patients, 4 to 6 visits): 15 (31%)
- dyspepsia: median of percentage of study visits with side-effect per patient ([4]; 48 patients, 4 to 6 visits): 0%
- dyspepsia: number of patients (% total) with at least one study visit with side-effect ([4]; 48 patients, 4 to 6 visits): 16 (33%)
- nausea: median of percentage of study visits with side-effect per patient ([4]; 48 patients, 4 to 6 visits): 0%
- nausea: number of patients (% total) with at least one study visit with side-effect ([4]; 48 patients, 4 to 6 visits): 22 (46%)
- stomatitis: median of percentage of study visits with side-effect per patient ([4]; 48 patients, 4 to 6 visits): 0%
- stomatitis: number of patients (% total) with at least one study visit with side-effect ([4]; 48 patients, 4 to 6 visits): 5 (10%)
- Estimate, percentage of 4 week periods with all side-effects [4, 8]: 0.20 ± 0.09
- Estimate, percentage of 4 week periods with central nervous system side-effects [4, 8]: 0.11 ± 0.09
- Estimate, percentage of 4 week periods with gastrointestinal side-effects [4, 8]: 0.29 ± 0.08
- Estimate, percentage of 4 week periods with all side-effects [4, 9]: 0.18 ± 0.10
- Estimate, percentage of 4 week periods with central nervous system side-effects [4, 9]: 0.21 ± 0.10
- Estimate, percentage of 4 week periods with gastrointestinal side-effects [4, 9]: 0.25 ± 0.09
- Estimate, percentage of 4 week periods with all side-effects [4, 10]: 0.22 ± 0.10
- Estimate, percentage of 4 week periods with central nervous system side-effects [4, 10]: 0.16 ± 0.09
- Estimate, percentage of 4 week periods with gastrointestinal side-effects [4, 10]: 0.28 ± 0.09
- Increase in MCV above 120 fl ([4]; baseline to visit 4): none of the patients
- Patients requiring MTX dosage interruption, number ([4]; both at the fourth visit): Two
- Estimate, MTX dose administered vs occurrence of central nervous system side-effects ([4]; generalized linear model): 0.186
- Median increase in MCV from baseline ([4]; visit 4): 3.5%
- Erythrocyte mean corpuscular volume (MCV), median ([4]; visit 4 (baseline 89 fl)): 93 fL
- MCV of the only one patient above 120 fl ([4]; visit 6): 124 fL
- Median increase in MCV ([4]; visit 6): 3.7%
- Patients with high disease activity and side-effects, number ([5]; 97 patients): 18
- Overall side-effects, number of patients ([5]; 97 patients on MTX at least one month, single study visit): 40
- AST >40 U/L, % of patients [5, 11]: (6.1%)
- AST >40 U/L, number of patients [5, 11]: 6
- Alopecia, % of patients [5, 11]: (17.5%)
- Alopecia, number of patients [5, 11]: 17
- Central nervous system side-effects, % of patients [5, 11]: (11.3%)
- Central nervous system side-effects, number of patients [5, 11]: 11
- Diarrhea, % of patients [5, 11]: (6.2%)
- Diarrhea, number of patients [5, 11]: 6
- Dyspepsia, % of patients [5, 11]: (7.2%)
- Dyspepsia, number of patients [5, 11]: 7
- Elevation of AST twice the upper normal value, pulmonary toxicity, or hematopoietic toxicity [5, 11]: None of the patients
- Gastrointestinal tract side-effects, % of patients [5, 11]: (24.7%)
- Gastrointestinal tract side-effects, number of patients [5, 11]: 24
- Headache, % of patients [5, 11]: (5.1%)
- Headache, number of patients [5, 11]: 8
- Lethargy, % of patients [5, 11]: (8.2%)
- Lethargy, number of patients [5, 11]: 8
- Nausea, % of patients [5, 11]: (9.2%)
- Nausea, number of patients [5, 11]: 9
- Severity of side-effects [5, 11]: mild and did not require MTX withdrawal
- Stomatatis, % of patients [5, 11]: (3.1%)
- Stomatatis, number of patients [5, 11]: 3
- Patients with high disease activity also experiencing a side-effect ([5]; of patients with high disease activity, at the time of the visit): 39%
- Occurrence of central nervous system side-effects ([5]; patients with MTHFR 677C/T or 677C/C genotype): 9.0%
- Occurrence of central nervous system side-effects ([5]; patients with MTHFR 677T/T genotype): 62.5%
- Patients presenting with a side-effect ([5]; toxicogenetic index of 0): 17%
